From patent US20190218504A1, “METHODS OF CULTURING AURANTIOCHYTRIUM USING ACETATE AS AN ORGANIC CARBON SOURCE” (HELIAE DEVELOPMENT LLC, priority 2016, published 2019)
Read-outs that look alike come from different tables or passages of the source.

How the values were obtained:
[1] = tested on: Aurantiochytrium sp. HS399; settings: for growth with nitrogen source under an acetic acid pH auxostat system: pH 5.5 or 6.0
[2] = tested on: Aurantiochytrium sp. HS399; settings: FIG. 1; pH set point 5.5 and 7
Experimental: An experiment was performed to determine the ability of Aurantiochytrium to grow on combination of acetate and another organic carbon source in axenic and contaminated culture conditions. […] The initial culture medium was supplemented with 30 g/L glycerol and 0.5 g/L acetate. […] Cell dry weights were measured daily.

[3] = tested on: Aurantiochytrium sp. HS399; settings: cultures with a pH of 5 and above
Experimental: Aurantiochytrium was grown in an acetic acid/pH-auxostat mode in 700 ml bubble column at 27° C. in sterile conditions. […] Trace and vitamins stocks were prepared according to Ashford, et al. 2000.

[4] = tested on: aerobic bacteria; settings: throughout the batch, Table 20
Experimental: (§1) An experiment was performed to determine the effectiveness of growing Aurantiochytrium with combination of acetate and a non-acetate organic carbon sources, in this case glycerol. Aurantiochytrium sp. HS399 was grown in a 100 L open pond. The base medium contained: sodium acetate (1 g/L), glycerol (30 g/L) monosodium glutamate monohydrate (2.5 g/L) NaCl (12.5 g/L), MgSO4.7H2O (2.5 g/L), KCl (0.5 g/L), CaCl2 (0.1 g/L), KH2PO4 (0.5 g/L), vitamins (1 ml/L), and trace metal (5 ml/L). Trace and vitamins stocks were prepared according to Ashford, et al. 2000. Lipids 35, 1377-1386. The ponds were inoculated at 1 v/v using exponentially growing cultures. Aeration was maintained at 0.5 vvm using a porous hose. In one treatment the pH was controlled at a set point of pH 7 with hydrochloric acid, and no acetic acid was supplied (i.e., glycerol only). In another treatment acetic acid was supplied by a pH auxostat system at a set point of 5.5 in addition to the glycerol. The impact on microalgae growth and contamination was analyzed by measuring dry weights (filtration), residual acetate concentration in the culture medium (HPLC), and total aerobic bacteria counts (petrifilms) daily.

[5] = tested on: Aurantiochytrium sp. HS399; settings: Table 19
Experimental: as §1

[6] = tested on: Aurantiochytrium sp. HS399
Experimental: An experiment was performed to determine if Aurantiochytrium sp. HS399 can grow using acetate as an organic carbon source and ammonia as a nitrogen source. Aurantiochytrium was grown in an acetic acid/pH-auxostat mode in 700 ml bubble column at 27° C. in sterile conditions. The base medium contained: NaCl (12.5 g/L), MgSO4.7H2O (2.5 g/L), KCl (0.5 g/L). CaCl2) (0.1 g/L), KH2PO4 (0.125 g/L) vitamins (0.25 ml/L) and trace metal (1.25 ml/L). Trace and vitamins stocks were prepared according to Ashford, et al. 2000. Lipids 35, 1377-1386. A blend of ammonium (hydroxide and acetic acid 1:5 w/w) with slightly higher molar ratio of acetic acid (1:1.1) was prepared with the aim maintain residual acetate present until the end of the pH auxostat. The pH auxostat was set to pH 6.6. The ammonium acetate blend was added to the treatments in order to match the following concentrations: 1×: 1.07 g/L NH4, 5.68 g/L acetic acid, 3×: 3.21 g/L NH4, 17.04 g/L acetic acid, 5×: 5.35 g/L NH4, 28.40 g/L acetic acid, 7×: 7.49 g/L NH4, 39.76 g/L acetic acid.

Question: Which results are given for `N[C@@H](CCC(=O)O)C(=O)[O-].[Na+]` [MSG, monosodium glutamate]?
Answer: Cell Dry Weight ([1]; pH 5.5, 2.5 g/L, time 1 d): 2.6 ± 0.0 g/L; Cell Dry Weight ([1]; pH 5.5, 2.5 g/L, time 2 d): 5.2 ± 0.0 g/L; Cell Dry Weight ([1]; pH 5.5, 2.5 g/L, time 3 d): 7.5 ± 0.2 g/L; Cell Dry Weight ([1]; pH 5.5, 2.5 g/L, time 4 d): 8.8 ± 0.4 g/L; Cell Dry Weight ([1]; pH 5.5, 2.5 g/L, time 5 d): 10.4 ± 0.4 g/L; Cell Dry Weight ([1]; pH 5.5, 2.5 g/L, time 6 d): 11.4 ± 0.3 g/L; growth with nitrogen source under an acetic acid pH auxostat system [1]: could grow; Cell Dry Weight ([1]; pH 6.0, 10 g/L, time 1 d): 3.6 ± 0.3 g/L; Cell Dry Weight ([1]; pH 6.0, 10 g/L, time 2 d): 6.1 ± 0.1 g/L; Cell Dry Weight ([1]; pH 6.0, 10 g/L, time 4 d): 7.9 ± 2.0 g/L; Cell Dry Weight ([1]; pH 6.0, 10 g/L, time 6 d): 11.9 ± 2.6 g/L

Question: With `CC(=O)O` [Acetic Acid, acetic acid] as the molecule, how does the “growth in axenic and contaminated cultures versus cultures not receiving acetic acid” value [2] read?
Answer: comparable growth

Question: And the “growth using acetate as an organic carbon source” value [3]?
Answer: able to grow

Question: And the “decrease of aerobic bacteria counts as compared to the other treatment” value [4]?
Answer: ≥ 3 log

Question: And the “growth compared to the other culture (glycerol only, HCl)” value [5]?
Answer: comparable growth

Question: Which “Cell Dry Weight” value ([1]; pH 5.5, 1.1 g/L, time 0 d) does the source give for `CC(=O)O.N` [NH4AoC, ammonium acetate] here?
Answer: 0.2 ± 0.0 g/L

Question: And the “Cell Dry Weight” value ([1]; pH 5.5, 1.1 g/L, time 1 d)?
Answer: 2.5 ± 0.1 g/L

Question: What about the “Cell Dry Weight” value ([1]; pH 5.5, 1.1 g/L, time 2 d) of the same molecule?
Answer: 4.9 ± 0.1 g/L

Question: And the “Cell Dry Weight” value ([1]; pH 5.5, 1.1 g/L, time 3 d)?
Answer: 7.5 ± 0.3 g/L

Question: What about the “Cell Dry Weight” value ([1]; pH 5.5, 1.1 g/L, time 4 d) of the same molecule?
Answer: 8.9 ± 0.2 g/L

Question: What about the “Cell Dry Weight” value ([1]; pH 5.5, 1.1 g/L, time 5 d) of the same molecule?
Answer: 10.7 ± 0.3 g/L

Question: And the “Cell Dry Weight” value ([1]; pH 5.5, 1.1 g/L, time 6 d)?
Answer: 11.8 ± 0.1 g/L

Question: And the “growth with nitrogen source under an acetic acid pH auxostat system” value [1]?
Answer: could grow

Question: And the “Cell Dry Weight” value ([1]; pH 6.0, 4.5 g/L, time 0 d)?
Answer: 0.2 ± 0.0 g/L

Question: And the “Cell Dry Weight” value ([1]; pH 6.0, 4.5 g/L, time 1 d)?
Answer: 2.6 ± 0.1 g/L

Question: And the “Cell Dry Weight” value ([1]; pH 6.0, 4.5 g/L, time 2 d)?
Answer: 5.4 ± 0.4 g/L

Question: What about the “Cell Dry Weight” value ([1]; pH 6.0, 4.5 g/L, time 3 d) of the same molecule?
Answer: 7.8 ± 0.1 g/L

Question: What about the “Cell Dry Weight” value ([1]; pH 6.0, 4.5 g/L, time 4 d) of the same molecule?
Answer: 9.8 ± 0.5 g/L

Question: And the “Cell Dry Weight” value ([1]; pH 6.0, 4.5 g/L, time 5 d)?
Answer: 11.9 ± 0.2 g/L

Question: What about the “Cell Dry Weight” value ([1]; pH 6.0, 4.5 g/L, time 6 d) of the same molecule?
Answer: 13.8 ± 0.2 g/L

Question: What about the “Cell Dry Weight” value ([6]; 1X (1.07 g/L NH4, 5.68 g/L acetic acid), time 0 d) of the same molecule?
Answer: 0.6 ± 0.0 g/L

Question: And the “Cell Dry Weight” value ([6]; 1X, time 1 d)?
Answer: 2.2 ± 0.0 g/L

Question: What about the “Cell Dry Weight” value ([6]; 1X, time 2 d) of the same molecule?
Answer: 4.8 ± 0.0 g/L

Question: And the “Cell Dry Weight” value ([6]; 1X, time 3 d)?
Answer: 7.0 ± 0.1 g/L

Question: And the “Cell Dry Weight” value ([6]; 1X, time 4 d)?
Answer: 7.9 ± 0.1 g/L

Question: And the “Cell Dry Weight” value ([6]; 1X, time 5 d)?
Answer: 8.7 ± 0.2 g/L

Question: What about the “Cell Dry Weight” value ([6]; 1X, time 6 d) of the same molecule?
Answer: 9.4 ± 0.1 g/L

Question: What about the “growth on ammonium acetate blends” value ([6]; 1× and 3× blends, pH 6.6) of the same molecule?
Answer: able to grow

Question: And the “Cell Dry Weight” value ([6]; 3X (3.21 g/L NH4, 17.04 g/L acetic acid), time 0 d)?
Answer: 0.6 ± 0.0 g/L

Question: And the “Cell Dry Weight” value ([6]; 3X, time 1 d)?
Answer: 1.7 ± 0.1 g/L

Question: And the “Cell Dry Weight” value ([6]; 3X, time 2 d)?
Answer: 3.6 ± 0.3 g/L

Question: What about the “Cell Dry Weight” value ([6]; 3X, time 3 d) of the same molecule?
Answer: 5.2 ± 0.1 g/L

Question: And the “Cell Dry Weight” value ([6]; 3X, time 4 d)?
Answer: 6.5 ± 0.3 g/L

Question: What about the “Cell Dry Weight” value ([6]; 3X, time 5 d) of the same molecule?
Answer: 6.8 ± 0.3 g/L

Question: And the “Cell Dry Weight” value ([6]; 3X, time 6 d)?
Answer: 7.5 ± 0.1 g/L

Question: What about the “Cell Dry Weight” value ([6]; 5X (5.35 g/L NH4, 28.40 g/L acetic acid), time 0 d) of the same molecule?
Answer: 0.6 ± 0.0 g/L

Question: What about the “Cell Dry Weight” value ([6]; 5X, time 1 d) of the same molecule?
Answer: 0.8 ± 0.2 g/L

Question: And the “Cell Dry Weight” value ([6]; 5X, time 2 d)?
Answer: 0.7 ± 0.1 g/L

Question: What about the “Cell Dry Weight” value ([6]; 5X, time 3 d) of the same molecule?
Answer: 0.7 ± 0.0 g/L

Question: What about the “Cell Dry Weight” value ([6]; 5X, time 4 d) of the same molecule?
Answer: 0.8 ± 0.1 g/L

Question: What about the “Cell Dry Weight” value ([6]; 5X, time 5 d) of the same molecule?
Answer: 0.3 ± 0.0 g/L

Question: What about the “Cell Dry Weight” value ([6]; 5X, time 6 d) of the same molecule?
Answer: 0.4 ± 0.0 g/L

Question: And the “Cell Dry Weight” value ([6]; 7X (7.49 g/L NH4, 39.76 g/L acetic acid), time 0 d)?
Answer: 0.6 ± 0.0 g/L

Question: And the “Cell Dry Weight” value ([6]; 7X, time 1 d)?
Answer: 1.0 ± 0.2 g/L

Question: What about the “Cell Dry Weight” value ([6]; 7X, time 2 d) of the same molecule?
Answer: 0.6 ± 0.1 g/L

Question: What about the “Cell Dry Weight” value ([6]; 7X, time 3 d) of the same molecule?
Answer: 0.7 ± 0.0 g/L

Question: What about the “Cell Dry Weight” value ([6]; 7X, time 4 d) of the same molecule?
Answer: 0.8 ± 0.1 g/L

Question: And the “Cell Dry Weight” value ([6]; 7X, time 5 d)?
Answer: 0.3 ± 0.0 g/L

Question: And the “Cell Dry Weight” value ([6]; 7X, time 6 d)?
Answer: 0.6 ± 0.1 g/L
